Marks after values point to notes of the source that are not given here.
Legend:
[1] = log P by HPLC on a reversed-phase column (C 18), EEC Directive 79/831 Annex V.A8; type: physicochemical; conditions: HPLC C 18, 40° C., 0.1% aqueous formic acid and acetonitrile; for chromatographic logP: reversed-phase HPLC column (C 18), Table 2, compounds of formula (IIa); for logP: Table 1, several values = mixture of 2 or more isomers
Description: In table 1, the log P values were determined in accordance with EEC Directive 79/831 Annex V.A8 by HPLC (High Performance Liquid Chromatography) on a reversed-phase column (C 18), using the method described below:
Temperature: 40° C.; Mobile phases: 0.1% aqueous formic acid and acetonitrile; linear gradient from 10% acetonitrile to 90% acetonitrile.
Calibration was carried out using unbranched alkan-2-ones (comprising 3 to 16 carbon atoms) with known log P values (determination of the log P values by the retention times using linear interpolation between two successive alkanones). lambda-max-values were determined using UV-spectra from 200 nm to 400 nm and the peak values of the chromatographic signals.

Uromyces appendiculatus = assay: In vivo preventive test on Uromyces appendiculatus (bean rust); conditions: bean plants; for protection: Table K2 comparison with saturated analogues, 500 ppm, preventive, 11 days after contamination
Description: (§1) The active ingredients tested are prepared by homogenization in a mixture of acetone/tween/DMSO, and then diluted with water to obtain the desired active material concentration.
(§2) After 24 hours, the plants are contaminated by spraying the leaves with an aqueous suspension of Uromyces appendiculatus spores (150 000 spores per mL). The spores are collected from infected plants and are suspended in water containing 2.5 mL/L of Tween 80 at 10%. The contaminated bean plants are incubated for 24 hours at 20° C. and at 100% relative humidity, and then for 10 days at 20° C. and at 70-80% relative humidity.
Grading (% of efficacy) is carried out 11 days after the contamination, in comparison with the control plants.

Pyrenophora teres = assay: In vivo preventive test on Pyrenophora teres (barley); conditions: Table H2; 100 ppm, barley plants, preventive, grading 14 days after contamination
Description: as §1
Barley plants (“Plaisant” variety), sown in starter cups on a 50/50 peat soil pozzolana substrate and grown at 22° C., are treated at the 1 leaf stage (10 cm height) by spraying with the active ingredient prepared as described above. Plants, used as controls, are treated with the mixture of acetone/tween/DMSO/water not containing the active material.
After 24 hours, the plants are contaminated by spraying the leaves with an aqueous suspension of Pyrenophora teres spores (12 000 spores per mL). The spores are collected from a 12-day-old culture.
The contaminated barley plants are incubated for 48 hours at 20° C. and at 100% relative humidity, and then for 12 days at 20° C. at 70-80% relative humidity.
Grading (% of efficacy) is carried out 14 days after the contamination, in comparison with the control plants.
Under these conditions, good (at least 70%) to total protection is observed at a dose of 500 ppm of active ingredient with the following compounds from table H1: […]

Puccinia recondita = assay: In vivo preventive test on Puccinia recondita (brown rust on wheat); conditions: 500 ppm of active ingredient; wheat plants, preventive spray; grading 12 days after contamination
Description: as §1
Wheat plants (“Scipion” variety), sown in starter cups on a 50/50 peat soil pozzolana substrate and grown at 22° C., are treated at the 1 leaf stage (10 cm height) by spraying with the active ingredient prepared as described above. Plants, used as controls, are treated with the mixture of acetone/tween/DMSO/water not containing the active material.
as §2, with “of Puccinia recondita” for “of Uromyces appendiculatus”, “spores (100” for “spores (150”, “from an” for “from”, “infected plant” for “infected plants”, “contaminated wheat” for “contaminated bean”
Grading (% of efficacy) is carried out 12 days after the contamination, in comparison with the control plants.
Under these conditions, good (at least 70%) to total protection is observed at a dose of 500 ppm of active ingredient with the following compounds from table I: […]

[2] = 500 ppm of active ingredient, preventive spray, grading 11 days after contamination (table K1)
[3] = dose 100 ppm, comparison with saturated analogues (table K2)
[4] = dose 500 ppm, comparison with saturated analogues (table K2)

Clc1ccc(C2=CCCCC2)c(CNC2CC2)c1 [IIa.7, N-[5-chloro-2-(cyclohex-1-en-1-yl)benzyl]cyclopropanamine]
chromatographic logP [1]: 1.45

O=C(c1ccsc1I)N(Cc1cc(C2=CCCC2)ccc1Cl)C1CC1 [I.12]
logP [1]: 5.51

C1=C(c2ccccc2CNC2CC2)CCCC1 [IIa.6, N-[2-(cyclohex-1-en-1-yl)benzyl]cyclopropanamine]
chromatographic logP [1]: 1.37

O=C(c1ccsc1I)N(Cc1ccccc1C1=CCCC1)C1CC1 [I.6]
logP [1]: 4.85 | Efficacy (Uromyces appendiculatus; [2]): 88%

Cn1nc(C(F)F)c(C(=O)N(Cc2ccccc2C2CCCC2)C2CC2)c1F [CMP4, N-(2-cyclopentylbenzyl)-N-cyclopropyl-3-(difluoromethyl)-5-fluoro-1-methyl-1H-pyrazole-4-carboxamide, reference compound]
protection (Uromyces appendiculatus): poor (less than 20%) protection or plant damages | Efficacy (Uromyces appendiculatus; [3]): 100%

Cn1cc(C(=O)N(Cc2cc(Cl)ccc2C2=CCCCCC2)C2CC2)c(C(F)F)c1 [I.55]
logP [1]: 5.34

Cn1nc(C(F)F)c(C(=O)N(Cc2cc(Cl)ccc2C2=CCCCCC2)C2CC2)c1Cl [I.56]
logP [1]: 5.54

Cn1cc(C(=O)N(Cc2cc(Cl)ccc2C2=CCCC2)C2CC2)c(C(F)F)n1 [I.22]
logP [1]: 4.06 | Efficacy (Pyrenophora teres): 71%

CC(NC1CC1)c1cc(F)ccc1C1=CCCC1 (stereo not shown) [IIa.4, N-{1-[2-(cyclopent-1-en-1-yl)-5-fluorophenyl]ethyl}cyclopropanamine]
chromatographic logP [1]: 1.56

Cn1nc(C(F)F)c(C(=O)N(Cc2cc(C3=CCCCC3)ccc2Cl)C2CC2)c1Cl [I.34]
logP [1]: 5.14 | Efficacy (Pyrenophora teres): 79%

Clc1ccc(C2=CCCCCC2)c(CNC2CC2)c1 [IIa.10, N-[5-chloro-2-(cyclohept-1-en-1-yl)benzyl]cyclopropanamine]
chromatographic logP [1]: 1.71

CC1CC=C(c2ccc(F)cc2CN(C(=S)c2c(C(F)F)nn(C)c2Cl)C2CC2)CC1 (racemic) [I.48]
logP [1]: 5.77

CC1CC=C(c2ccc(F)cc2CN(C(=O)c2c(C(F)F)nn(C)c2Cl)C2CC2)CC1 (racemic) [I.47]
logP [1]: 5.14 | Efficacy (Puccinia recondita): 81%

Cn1nc(C(F)F)c(C(=O)N(Cc2cc(Cl)ccc2C2=CCCC2)C2CC2)c1F [I.20]
logP [1]: 4.54 | Efficacy (Pyrenophora teres): 97%

Cn1cc(C(=O)N(Cc2cc(Cl)ccc2C2=CCCCCC2)C2CC2)c(C(F)F)n1 [I.57]
logP [1]: 4.87 | Efficacy (Pyrenophora teres): 79%

Cn1cc(C(=O)N(Cc2ccccc2C2CCCCC2)C2CC2)c(C(F)F)n1 [CMP5, N-(2-cyclohexylbenzyl)-N-cyclopropyl-3-(difluoromethyl)-1-methyl-1H-pyrazole-4-carboxamide, reference compound]
protection (Uromyces appendiculatus): poor (less than 20%) protection or plant damages | Efficacy (Uromyces appendiculatus; [3]): 0%

Cn1nc(C(F)F)c(C(=O)N(Cc2ccccc2C2=CCCCC2)C2CC2)c1Cl [I.29]
logP [1]: 4.66 | Efficacy (Puccinia recondita): 81% | Efficacy (Uromyces appendiculatus; [2]): 84% | Efficacy (Uromyces appendiculatus; [3]): 35% | Efficacy (Uromyces appendiculatus; [4]): 84%

O=C(c1ccsc1I)N(Cc1ccccc1C1=CCCCCC1)C1CC1 [I.52]
logP [1]: 5.78 | Efficacy (Uromyces appendiculatus; [2]): 75%

Cn1cc(C(=O)N(Cc2ccccc2C2=CCCC2)C2CC2)c(C(F)F)c1 [I.5]
logP [1]: 4.13

Cn1cc(C(=O)N(Cc2cc(Cl)ccc2C2=CCCCC2)C2CC2)c(C(F)F)n1 [I.39]
logP [1]: 4.44

Cn1nc(C(F)F)c(C(=O)N(Cc2cc(C3=CCCC3)ccc2Cl)C2CC2)c1Cl [I.8]
logP [1]: 4.82 | Efficacy (Pyrenophora teres): 71%

CC(NC1CC1)c1ccccc1C1=CCCC1 (stereo not shown) [IIa.1, N-{1-[2-(cyclopent-1-en-1-yl)phenyl]ethyl}cyclopropanamine]
chromatographic logP [1]: 1.72

Cn1nc(C(F)F)c(C(=O)N(Cc2cc(C3=CCCC3)ccc2Cl)C2CC2)c1F [I.9]
logP [1]: 4.59 | Efficacy (Pyrenophora teres): 79%

O=C(c1ccsc1I)N(Cc1cc(Cl)ccc1C1=CCCC1)C1CC1 [I.21]
logP [1]: 5.36

Cn1cc(C(=O)N(Cc2cc(Cl)ccc2C2=CCCCC2)C2CC2)c(C(F)F)c1 [I.40]
logP [1]: 4.93

Cn1nc(C(F)F)c(C(=O)N(Cc2cc(Cl)ccc2C2=CCCCCC2)C2CC2)c1F [I.54]
logP [1]: 5.31

Cn1nc(C(F)F)c(C(=O)N(Cc2ccccc2C2CCCCC2)C2CC2)c1F [CMP6, N-(2-cyclohexylbenzyl)-N-cyclopropyl-3-(difluoromethyl)-5-fluoro-1-methyl-1H-pyrazole-4-carboxamide, reference compound]
protection (Uromyces appendiculatus): poor (less than 20%) protection or plant damages | Efficacy (Uromyces appendiculatus; [3]): 38^(d) %

Cn1nc(C(F)F)c(C(=O)N(Cc2cc(Cl)ccc2C2=CCCCC2)C2CC2)c1F [I.41]
logP [1]: 4.88

Cn1nc(C(F)F)c(C(=O)N(Cc2ccccc2C2CCCCC2)C2CC2)c1Cl [CMP7, 5-chloro-N-(2-cyclohexylbenzyl)-N-cyclopropyl-3-(difluoromethyl)-1-methyl-1H-pyrazole-4-carboxamide, reference compound]
protection (Uromyces appendiculatus): poor (less than 20%) protection or plant damages | Efficacy (Uromyces appendiculatus; [3]): 0% | Efficacy (Uromyces appendiculatus; [4]): 13%

Cn1nc(C(F)F)c(C(=O)N(Cc2cc(Cl)ccc2C2=CCCCC2)C2CC2)c1Cl [I.38]
logP [1]: 5.11

C1=C(c2ccccc2CNC2CC2)CCC1 [IIa.2, N-[2-(cyclopent-1-en-1-yl)benzyl]cyclopropanamine]
chromatographic logP [1]: 1.19

Cn1nc(C(F)F)c(C(=O)N(Cc2cc(C3=CCCCC3)ccc2Cl)C2CC2)c1F [I.33]
logP [1]: 4.92 | Efficacy (Pyrenophora teres): 86%

Cn1cc(C(=O)N(Cc2cc(C3=CCCCC3)ccc2Cl)C2CC2)c(C(F)F)n1 [I.37]
logP [1]: 4.46

Clc1ccc(C2=CCCC2)c(CNC2CC2)c1 [IIa.3, N-[5-chloro-2-(cyclopent-1-en-1-yl)benzyl]cyclopropanamine]
chromatographic logP [1]: 1.28

Cn1cc(C(=O)N(Cc2cc(Cl)ccc2C2=CCCC2)C2CC2)c(C(F)F)c1 [I.24]
logP [1]: 4.58

O=C(c1ccsc1I)N(Cc1cc(Cl)ccc1C1=CCCCC1)C1CC1 [I.42]
logP [1]: 5.78

Cn1cc(C(=O)N(Cc2cc(C3=CCCC3)ccc2Cl)C2CC2)c(C(F)F)c1 [I.11]
logP [1]: 4.63

O=C(c1ccsc1I)N(Cc1cc(Cl)ccc1C1=CCCCCC1)C1CC1 [I.58]
logP [1]: 6.27

Clc1ccc(C2=CCCC2)cc1CNC1CC1 [IIa.5, N-[2-chloro-5-(cyclopent-1-en-1-yl)benzyl]cyclopropanamine]
chromatographic logP [1]: 1.39

C1=C(c2ccccc2CNC2CC2)CCCCC1 [IIa.9, N-[2-(cyclohept-1-en-1-yl)benzyl]cyclopropanamine]
chromatographic logP [1]: 1.45

Clc1ccc(C2=CCCCC2)cc1CNC1CC1 [IIa.8, N-[2-chloro-5-(cyclohex-1-en-1-yl)benzyl]cyclopropanamine]
chromatographic logP [1]: 1.45

Cn1cc(C(=O)N(Cc2cc(C3=CCCCC3)ccc2Cl)C2CC2)c(C(F)F)c1 [I.36]
logP [1]: 4.93

Cn1cc(C(=O)N(Cc2cc(C3=CCCC3)ccc2Cl)C2CC2)c(C(F)F)n1 [I.10]
logP [1]: 4.14

Cn1nc(C(F)F)c(C(=O)N(Cc2cc(Cl)ccc2C2=CCCC2)C2CC2)c1Cl [I.23]
logP [1]: 4.74

O=C(c1ccsc1I)N(Cc1cc(C2=CCCCC2)ccc1Cl)C1CC1 [I.35]
logP [1]: 5.87

Source: patent US9540314B2, “N-cycloalkyl-N-[(cycloalkenylphenyl)methylene]-(thio) carboxamide derivatives” (BAYER INTELLECTUAL PROPERTY GMBH, priority 2012, dated 2017)
